Experimental data taken from patent US20230029496A1, “AMINO ACID ALTERNATIVE CURING SYSTEM” (THE TEXAS A&M UNIVERSITY SYSTEM, priority 2019, published 2023).
Several values for one entry are separate records, joined by “and”; a condition that tells them apart may be missing. Identical values can stand only once. Marks after values point to notes of the source that are not given here.

Legend:
[1] = tested on: Nitric Oxide Synthase (NOS) system; assay: Residual nitrite in pre-rigor and post-rigor pork semimembranosus muscle immersed in L-arginine (Example 13); assay type: biochemical
Procedure: Pre-rigor pork semimembranosus muscle samples were collected from four pre-rigor pork carcasses (n=4) harvested at the Rosenthal Meat Science and Technology Center at Texas A&M University at three separate times over a three day period (N=12). Post-rigor pork semimembranosus muscle samples were collected from the same carcasses eighteen hours after harvesting to ensure the full onset and completion of rigor (N=12). Muscle samples were treated with the same five concentrations of L-arginine and water as the control treatment. Samples were either heated (water bath increasing from room temperature ([…]) to 62° C. for 60 min) or left raw/fresh (uncooked). The overall experiment was designed as a 6 (5 L-arginine concentrations and a control) by 4 (pork carcasses) by 2 (heating treatment (raw and cooked)) factorial replicated 3 times (collection) (N=144) for both pre-rigor and post-rigor muscle types.
Solutions were prepared by Wu's specifications to stabilize the muscle samples for enclosed reactions within 50 mL conical tubes. […] The NaCl was used to suspend and stabilize any reaction and the NaE was used to accelerate the cure reaction. The L-arginine (L-arginine monohydrochloride, Ajinomoto Inc., Raleigh, N.C.) concentrations were prepared separately for administration as a treatment once the five grams of meat were added to the reaction tubes at dilutions of 0 mM, 2 mM, 4 mM, 8 mM 16 mM, and 32 mM.
Residual nitrite was determine using the modified AOAC Official Method 973.31 (Nitrite Analysis in Cured Meats Procedure) and was verified by Wu with sample (plasma or serum) preparation for amino acid analysis by HPLC and determination of nitrite (UV/VIS Spectrophotometric Method). This method was used to best determine any residual nitrite found in samples to compensate for both pre-rigor and post rigor effects on detecting residual nitrite. All samples were tested one week later after being held in a −30° C. freezer then thawed in a 0° C. cooler.

[2] = tested on: Nitric Oxide Synthase (NOS) system; assay: NO-heme, total heme, nitrosylation in plastic casing test tube ground pork loin sausages (Example 10); conditions: for Nitrosylation / NO-Heme / Total Heme: cooked; for NO-Heme / Total Heme: ppm acid hematin
Procedure: The desired cured color could not initially be generated in a variety of processed meat products in a pilot plant setting. […] Pork loins (N=2) procured from a local meat distributor (Mar. 18, 2019) were used. Eight pounds of pork loins were ground (½″ then ¼″ plate) and weighed out in one pound portions. Plastic waterproof casings (2″ diameter) were clipped at one end. One pound of ground pork loin was placed in the casing and two pounds of brine (L-arginine concentration 7498 ppm) were added and the open end of the casing clipped. Based on laboratory test tube studies, meat samples would absorb 20-25% of the solution which equates to absorption of approximately 1500 ppm of L-arginine. Each plastic casing contained the same proportion of meat and brine as conducted during previous laboratory experiments (Table 12). A control was manufactured by substituting distilled water for the L-arginine brine.
After thermal processing the plastic casing test tubes were cut open and emptied into beakers, then separated into residue (meat particles) and supernatant (liquid) via paper filtration into 50 mL conical tubes for collection and subsequent analysis for residual nitrite (supernatant) and cured pigment formation/nitrosylation (meat residue).
Nitrosylation and residual nitrite analyses was performed under reduced light to avoid loss of pigmentation. L-arginine treated test tube pork sausage averaged 53.12 to 72.30 ppm of residual nitrite in the cooked meat pellet with percent nitrosylation ranging from 33 to 60 percent (Table 13). The brine was formulated to deliver 1500 ppm ingoing L-arginine at 25% absorption into the meat after two hours of immersion in the brine solution.

[3] = 2 mM L-arginine, cooked supernatant
[4] = 2 mM L-arginine, raw supernatant, stored one week at -30° C.
[5] = 4 mM L-arginine, cooked supernatant
[6] = 4 mM L-arginine, raw supernatant, stored one week at -30° C.
[7] = 8 mM L-arginine, cooked supernatant
[8] = 8 mM L-arginine, raw supernatant, stored one week at -30° C.
[9] = 16 mM L-arginine, cooked pellet
[10] = 16 mM L-arginine, cooked supernatant
[11] = 16 mM L-arginine, raw supernatant, stored one week at -30° C.
[12] = 32 mM L-arginine, cooked pellet
[13] = 32 mM L-arginine, cooked supernatant
[14] = 32 mM L-arginine, raw supernatant, stored one week at -30° C.

With `N=C(N)NCCC[C@H](N)C(=O)O` [L-arginine] the “Residual Post rigor Nitrite” value ([1]; 2 mM L-arginine, cooked pellet) was 19.36^b ppm, the “Residual Pre-rigor Nitrite” value ([1]; 2 mM L-arginine, cooked pellet) was 22.87^a ppm and the “Residual Post rigor Nitrite” value [1, 3] was 61.12 ppm and 61.12^a ppm. For the same compound, the “Residual Pre-rigor Nitrite” value [1, 3] was 50.72 ppm and 50.72^a ppm, the “Residual Post rigor Nitrite” value [1, 4] was 9.42^a ppm and the “Residual Pre-rigor Nitrite” value [1, 4] was 15.26^a ppm. For the same compound, the “Residual Post rigor Nitrite” value ([1]; 4 mM L-arginine, cooked pellet) was 23.72 ppm and 23.72^ab ppm, the “Residual Pre-rigor Nitrite” value ([1]; 4 mM L-arginine, cooked pellet) was 22.64^a ppm and the “Residual Post rigor Nitrite” value [1, 5] was 61.93 ppm and 61.93^a ppm. For the same compound, the “Residual Pre-rigor Nitrite” value [1, 5] was 47.72 ppm and 47.72^ab ppm, the “Residual Post rigor Nitrite” value [1, 6] was 14.50^a ppm and the “Residual Pre-rigor Nitrite” value [1, 6] was 34.93^a ppm. The “Residual Post rigor Nitrite” value ([1]; 8 mM L-arginine, cooked pellet) was 22.06 ppm and 22.06^ab ppm, the “Residual Pre-rigor Nitrite” value ([1]; 8 mM L-arginine, cooked pellet) was 19.70^a ppm and the “Residual Post rigor Nitrite” value [1, 7] was 52.69 ppm and 52.69^ab ppm. For the same compound, the “Residual Pre-rigor Nitrite” value [1, 7] was 38.63 ppm and 38.63^ab ppm, the “Residual Post rigor Nitrite” value [1, 8] was 21.83^a ppm and the “Residual Pre-rigor Nitrite” value [1, 8] was 44.58^a ppm. The “Residual Post rigor Nitrite” value [1, 9] was 22.15 ppm and 22.15^ab ppm, the “Residual Pre-rigor Nitrite” value [1, 9] was 31.94^a ppm and the “Residual Post rigor Nitrite” value [1, 10] was 53.74 ppm and 53.74^a ppm. For the same compound, the “Residual Pre-rigor Nitrite” value [1, 10] was 24.62 ppm and 24.62^ab ppm, the “Residual Post rigor Nitrite” value [1, 11] was 23.54^a ppm and the “Residual Pre-rigor Nitrite” value [1, 11] was 11.92^a ppm. For the same compound, the “Residual Post rigor Nitrite” value [1, 12] was 32.87 ppm and 32.87^a ppm, the “Residual Pre-rigor Nitrite” value [1, 12] was 40.14 ppm and 40.14^a ppm and the “Residual Post rigor Nitrite” value [1, 13] was 52.90 ppm and 52.90^ab ppm. The “Residual Pre-rigor Nitrite” value [1, 13] was 20.08 ppm and 20.08^ab ppm, the “Residual Post rigor Nitrite” value [1, 14] was 16.51^a ppm and the “Residual Pre-rigor Nitrite” value [1, 14] was 22.09^a ppm. For the same compound, the Residual Nitrite ([1]; pre-rigor raw supernatant, range over all concentrations of L-arginine) was 11.92-44.58 ppm, the residual nitrite levels ([1]; raw post rigor supernatant, range over all concentrations of L-arginine) was 9.06-23.54 ppm and the Nitrosylation ([2]; 10% L-arginine brine) was 33.71^ab %. For the same compound, the NO-Heme ([2]; 10% L-arginine brine) was 7.63^bc ppm, the “Total Heme” value ([2]; 10% L-arginine brine) was 22.66^a ppm and the Nitrosylation ([2]; 15% L-arginine brine) was 45.19^a %. The NO-Heme ([2]; 15% L-arginine brine) was 8.70^b ppm, the “Total Heme” value ([2]; 15% L-arginine brine) was 19.26^a ppm and the Nitrosylation ([2]; 20% L-arginine brine) was 36.99^ab %. For the same compound, the NO-Heme ([2]; 20% L-arginine brine) was 8.31^b ppm, the “Total Heme” value ([2]; 20% L-arginine brine) was 22.66^a ppm and the Nitrosylation ([2]; 25% L-arginine brine) was 60.13^a %. For the same compound, the NO-Heme ([2]; 25% L-arginine brine) was 16.24^a ppm, the “Total Heme” value ([2]; 25% L-arginine brine) was 28.56^a ppm and the percent nitrosylation ([2]; range over brine additions 10-25%) was 33 to 60%.
